Reference: PubChem BioAssay (NCI)
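Following 48 hours of exposure in 96-well plates, responses at five concentrations were used to interpolate endpoints linearly. Definition used: TGI = concentration required for complete inhibition of growth.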

How the values were obtained:
Assay in all cases: NCI-60 cell line screen, 48 h
A498 renal = tested on: A498 renal
COLO 205 colon = tested on: COLO 205 colon
DU-145 prostate = tested on: DU-145 prostate
HCT-116 colon = tested on: HCT-116 colon
HOP-62 NSCLC = tested on: HOP-62 NSCLC
HOP-92 NSCLC = tested on: HOP-92 NSCLC
HT29 colon = tested on: HT29 colon
IGROV1 ovarian = tested on: IGROV1 ovarian
SW-620 colon = tested on: SW-620 colon
UACC-257 melanoma = tested on: UACC-257 melanoma

| SMILES | TGI (A498 renal) | TGI (COLO 205 colon) | TGI (DU-145 prostate) | TGI (HCT-116 colon) | TGI (HOP-62 NSCLC) | TGI (HOP-92 NSCLC) | TGI (HT29 colon) | TGI (IGROV1 ovarian) | TGI (SW-620 colon) | TGI (UACC-257 melanoma) |
| --- | --- | --- | --- | --- | --- | --- | --- | --- | --- | --- |
| CC(=N\N=C\c1ccccn1)/C(C)=N/N=C(C)/C(C)=N/N=C(C)/C(C)=N/N=C/c1ccccn1 | > 100 µM | > 100 µM | > 100 µM | > 100 µM | > 100 µM | > 100 µM | > 100 µM | > 100 µM | > 100 µM | > 100 µM |
| CCOC(=O)N(C)C1(c2ccccc2)CCN(CCCC(=O)c2ccc(F)cc2)CC1 | > 100 µM | 29.7 µM | > 100 µM | > 100 µM | > 100 µM | 78.6 µM | 38.1 µM | > 100 µM | 9.3 µM | 38.2 µM |
| NCCCCNC1(c2cc3ccccc3s2)CCCCC1 | 6.04 µM | 3.5 µM | 23.5 µM | 14.9 µM | 20 µM | 20.8 µM | 9.7 µM | 13.1 µM | 14.6 µM | 3.38 µM |
| COc1ccc(C2(C3c4cc(OC)c(OC)cc4CCN3C)SCCCS2)cc1O (stereo not given) | > 100 µM | > 100 µM | > 100 µM | > 100 µM | > 100 µM | > 100 µM | > 100 µM | > 100 µM | > 100 µM | > 100 µM |
| Nc1c(S(=O)(=O)O)cc(Nc2cccc(S(=O)(=O)/C=C/S(=O)(=O)O)c2)c2c1C(=O)c1ccccc1C2=O | > 100 µM | > 100 µM | > 100 µM | > 100 µM | > 100 µM | > 100 µM | > 100 µM | > 100 µM | > 100 µM | > 100 µM |
| COC(=O)CCN(CCC(=O)OC)C1CC1 | > 100 µM | > 100 µM | > 100 µM | > 100 µM | > 100 µM | > 100 µM | > 100 µM | > 100 µM | > 100 µM | > 100 µM |
| CCCCCCCCC/C=C1\CC(CO)(COC(=O)c2ccccc2)OC1=O (stereo not given) | 58.3 µM | 33 µM | > 100 µM | 52.8 µM | 29.8 µM | 30.4 µM | 35.3 µM | 70.4 µM | 34.2 µM | 79.9 µM |
| CCOc1cc(C2SCC(=O)N2c2nc3cc4sc(N5C(=O)CSC5c5ccc(O)c(OCC)c5)nc4cc3s2)ccc1O (stereo not given) | > 100 µM | > 100 µM | > 100 µM | > 100 µM | > 100 µM | > 88.6 µM | > 100 µM | > 100 µM | > 100 µM | > 58.5 µM |
| Cc1cc(N=C2C=C(Nc3cc(C)on3)C(=O)c3ccccc32)no1 | > 100 µM | > 88.3 µM | > 100 µM | > 100 µM | > 100 µM | 52.6 µM | > 100 µM | > 78.1 µM | > 100 µM | 47 µM |
| COc1cc(/C=C/C(=O)OC[C@H](Br)[C@H](OC(C)=O)c2ccc3c(c2)OCO3)cc(OC)c1OC | > 100 µM | > 100 µM | > 100 µM | > 100 µM | > 100 µM | > 100 µM | > 100 µM | > 100 µM | > 100 µM | > 100 µM |
| O=C(OCc1ccccc1)N1c2cc([N+](=O)[O-])ccc2C(=O)N2CCC[C@H]2C1O (stereo not given in full) | > 100 µM | > 100 µM | > 100 µM | > 100 µM | > 100 µM | > 100 µM | > 100 µM | > 100 µM | > 100 µM | > 100 µM |
| c1ccc(C2=C(c3ccccc3)P(c3ccccc3)C2)cc1 (stereo not given) | > 100 µM | > 100 µM | > 100 µM | > 100 µM | > 100 µM | > 100 µM | > 100 µM | > 100 µM | > 100 µM | > 100 µM |
| C[C@H](CCC1=NCCN1)[C@H]1CC[C@H]2[C@@H]3CC[C@@H]4C[C@H](O)CC[C@]4(C)[C@H]3C[C@H](O)[C@]12C | 65.1 µM | 23.8 µM | 28.9 µM | > 100 µM | 28.9 µM | 30.9 µM | 22.3 µM | 21.9 µM | 44.6 µM | 28.7 µM |
| O=C(O)C1SCCS1 | > 100 µM | > 100 µM | > 100 µM | > 100 µM | > 100 µM | > 100 µM | > 100 µM | > 100 µM | > 100 µM | > 100 µM |
| Cc1ccc2nc(Cl)c(/C=N/N3C(=O)/C(=C/c4ccc(N(C)C)cc4)N=C3c3ccccc3)cc2c1 | > 100 µM | > 100 µM | > 100 µM | > 100 µM | > 100 µM | > 100 µM | > 100 µM | > 100 µM | > 100 µM | > 100 µM |
